Data as given in patent US8735414B2 (priority 2009, dated 2014).

System: bicistronic HCV replicon (replicon RNA, GenBank Accession No. AJ242654)
Assay: HCV Replicon Assay
Type: cell-based
Settings: Hepatitis C virus, 72 h, read-out: Replicon IC50

Structure (SMILES) | IC50
Cc1ccc2c(C#N)c(-c3ccc(S(=O)(=O)NC(CF)CF)cn3)n(C(C)C)c2c1 [compound 80, 6-[3-cyano-6-methyl-1-(propan-2-yl)-1H-indol-2-yl]-N-(1,3-difluoropropan-2-yl)pyridine-3-sulfonamide] | < 500 nM
CC(C)(C)S(=O)(=O)Nc1ccc(-c2c(C#N)c3cc(F)c(OC(F)F)cc3n2C2CCCCC2)cn1 [compound 1065, N-{5-[3-cyano-1-cyclohexyl-6-(difluoromethoxy)-5-fluoro-1H-indol-2-yl]pyridin-2-yl}-2-methylpropane-2-sulfonamide] | < 500 nM
CC(C)NS(=O)(=O)c1cnc(-c2c(C#N)c3cc(F)ccc3n2CC2CC2)nc1 [compound 303, 2-[3-cyano-1-(cyclopropylmethyl)-5-fluoro-1H-indol-2-yl]-N-(propan-2-yl)pyrimidine-5-sulfonamide] | < 500 nM
N#Cc1c(-c2ccc(S(=O)(=O)NC(CF)CF)cn2)n(C2CCC2)c2ccc(F)cc12 [compound 29, 6-(3-cyano-1-cyclobutyl-5-fluoro-1H-indol-2-yl)-N-(1,3-difluoropropan-2-yl)pyridine-3-sulfonamide] | < 500 nM
C[C@@H](NS(=O)(=O)c1ccc(-c2c(C#N)c3ccc(Cl)cc3n2C2CCCCC2)nc1)C(F)(F)F [compound 514, 6-(6-chloro-3-cyano-1-cyclohexyl-1H-indol-2-yl)-N-[(2R)-1,1,1-trifluoropropan-2-yl]pyridine-3-sulfonamide] | < 500 nM
Cc1ccc2c(C#N)c(-c3ncc(S(=O)(=O)NC(C)C)cn3)n(C3CCC3)c2c1 [compound 169, 2-(3-cyano-1-cyclobutyl-6-methyl-1H-indol-2-yl)-N-(propan-2-yl)pyrimidine-5-sulfonamide] | < 500 nM

System: not given
Assay: not given
Settings: not given

Structure (SMILES) | melting point
Cc1ccc2c(C#N)c(-c3ccc(S(=O)(=O)NC(CF)CF)cn3)n(C(C)C)c2c1 [compound 80, 6-[3-cyano-6-methyl-1-(propan-2-yl)-1H-indol-2-yl]-N-(1,3-difluoropropan-2-yl)pyridine-3-sulfonamide] | 188 to 195 °C
CC(C)(C)S(=O)(=O)Nc1ccc(-c2c(C#N)c3cc(F)c(OC(F)F)cc3n2C2CCCCC2)cn1 [compound 1065, N-{5-[3-cyano-1-cyclohexyl-6-(difluoromethoxy)-5-fluoro-1H-indol-2-yl]pyridin-2-yl}-2-methylpropane-2-sulfonamide] | 278 to 280 °C
CC(C)NS(=O)(=O)c1cnc(-c2c(C#N)c3cc(F)ccc3n2CC2CC2)nc1 [compound 303, 2-[3-cyano-1-(cyclopropylmethyl)-5-fluoro-1H-indol-2-yl]-N-(propan-2-yl)pyrimidine-5-sulfonamide] | 215 to 220 °C
N#Cc1c(-c2ccc(S(=O)(=O)NC(CF)CF)cn2)n(C2CCC2)c2ccc(F)cc12 [compound 29, 6-(3-cyano-1-cyclobutyl-5-fluoro-1H-indol-2-yl)-N-(1,3-difluoropropan-2-yl)pyridine-3-sulfonamide] | 206 to 208 °C
C[C@@H](NS(=O)(=O)c1ccc(-c2c(C#N)c3ccc(Cl)cc3n2C2CCCCC2)nc1)C(F)(F)F [compound 514, 6-(6-chloro-3-cyano-1-cyclohexyl-1H-indol-2-yl)-N-[(2R)-1,1,1-trifluoropropan-2-yl]pyridine-3-sulfonamide] | 218 to 223 °C
Cc1ccc2c(C#N)c(-c3ncc(S(=O)(=O)NC(C)C)cn3)n(C3CCC3)c2c1 [compound 169, 2-(3-cyano-1-cyclobutyl-6-methyl-1H-indol-2-yl)-N-(propan-2-yl)pyrimidine-5-sulfonamide] | 217 to 219 °C
N#Cc1c(-c2ccc(S(=O)(=O)NC3(C(F)(F)F)CCC3)cn2)n(C2CCC2)c2cc(OC(F)F)ccc12 [compound 106, 6-[3-cyano-1-cyclobutyl-6-(difluoromethoxy)-1H-indol-2-yl]-N-[1-(trifluoromethyl)cyclobutyl]pyridine-3-sulfonamide] | 162 to 168 °C
CC(C)NS(=O)(=O)c1ccc(-c2c(C#N)c3ccc(OC(F)(F)F)cc3n2C2CCC2)nc1 [compound 10, 6-[3-cyano-1-cyclobutyl-6-(trifluoromethoxy)-1H-indol-2-yl]-N-(propan-2-yl)pyridine-3-sulfonamide] | 191 to 193 °C
CC(C)NS(=O)(=O)c1ccc(-c2c(C#N)c3ccc(OC(F)F)cc3n2CC2CC2)cn1 [compound 40, 5-[3-cyano-1-(cyclopropylmethyl)-6-(difluoromethoxy)-1H-indol-2-yl]-N-(propan-2-yl)pyridine-2-sulfonamide] | 186 to 188 °C
C[C@H](NS(=O)(=O)c1ccc(-c2c(C#N)c3ccc(OC(F)F)cc3n2C2CCC2)nc1)C1CC1 [compound 151, 6-[3-cyano-1-cyclobutyl-6-(difluoromethoxy)-1H-indol-2-yl]-N-[(1S)-1-cyclopropylethyl]pyridine-3-sulfonamide] | 163 to 168 °C
CC(NS(=O)(=O)c1ccc(-c2c(C#N)c3ccc(OC(F)F)cc3n2C2CCC2)nc1)C(F)(F)F (centres unmarked) [compound 78, 6-[3-cyano-1-cyclobutyl-6-(difluoromethoxy)-1H-indol-2-yl]-N-(1,1,1-trifluoropropan-2-yl)pyridine-3-sulfonamide] | 159 to 165 °C
C[C@@H](NS(=O)(=O)c1ccc(-c2c(C#N)c3ccc(OC(F)F)cc3n2C2CCC2)nc1)C(F)(F)F [compound 196, 6-[3-cyano-1-cyclobutyl-6-(difluoromethoxy)-1H-indol-2-yl]-N-[(2R)-1,1,1-trifluoropropan-2-yl]pyridine-3-sulfonamide] | 159 to 164 °C
N#Cc1c(-c2ccc(S(N)(=O)=O)cn2)n(C2CCC2)c2cc(OC(F)F)ccc12 [compound 552, 6-[3-cyano-1-cyclobutyl-6-(difluoromethoxy)-1H-indol-2-yl]pyridine-3-sulfonamide] | 204 to 205 °C
CC(C)NS(=O)(=O)c1ccc(-c2c(C#N)c3cc(F)ccc3n2C2CCC2)nc1 [compound 5, 6-(3-cyano-1-cyclobutyl-5-fluoro-1H-indol-2-yl)-N-(propan-2-yl)pyridine-3-sulfonamide] | 203 to 205 °C
CC(C)NS(=O)(=O)c1ccc(-c2c(C#N)c3cc(C4CC4)ccc3n2C2CCC2)nc1 [compound 8, 6-(3-cyano-1-cyclobutyl-5-cyclopropyl-1H-indol-2-yl)-N-(propan-2-yl)pyridine-3-sulfonamide] | 172 to 174 °C
CC(C)NS(=O)(=O)c1cnc(-c2c(C#N)c3ccc(OC(F)F)cc3n2CC2CC2)nc1 [compound 170, 2-[3-cyano-1-(cyclopropylmethyl)-6-(difluoromethoxy)-1H-indol-2-yl]-N-(propan-2-yl)pyrimidine-5-sulfonamide] | 182 to 184 °C

Structure (SMILES) | melting point
CC(C#N)NS(=O)(=O)c1ccc(-c2c(C#N)c3ccc(OC(F)F)cc3n2C2CCC2)nc1 (centres unmarked) [compound 301, 6-[3-cyano-1-cyclobutyl-6-(difluoromethoxy)-1H-indol-2-yl]-N-(1-cyanoethyl)pyridine-3-sulfonamide] | 188 to 190 °C
N#Cc1c(-c2ccc(S(=O)(=O)NC(CO)CO)cn2)n(C2CCC2)c2cc(OC(F)F)ccc12 [compound 239, 6-[3-cyano-1-cyclobutyl-6-(difluoromethoxy)-1H-indol-2-yl]-N-(1,3-dihydroxypropan-2-yl)pyridine-3-sulfonamide] | 132 to 135 °C
C[C@@H](NS(=O)(=O)c1ccc(-c2c(C#N)c3ccc(C4CC4)cc3n2C2CCC2)nc1)C(F)(F)F [compound 212, 6-(3-cyano-1-cyclobutyl-6-cyclopropyl-1H-indol-2-yl)-N-[(2R)-1,1,1-trifluoropropan-2-yl]pyridine-3-sulfonamide] | 192 to 196 °C
CC(C)NS(=O)(=O)c1ccc(-c2c(C#N)c3ccc(OC(F)F)cc3n2C2CCCCC2)nc1 [compound 99, 6-[3-cyano-1-cyclohexyl-6-(difluoromethoxy)-1H-indol-2-yl]-N-(propan-2-yl)pyridine-3-sulfonamide] | 187 to 190 °C
CC(C)NS(=O)(=O)c1ccc(-c2c(C#N)c3ccc(C4CCC4)cc3n2C2CCC2)nc1 [compound 266, 6-(3-cyano-1,6-dicyclobutyl-1H-indol-2-yl)-N-(propan-2-yl)pyridine-3-sulfonamide] | 178 to 180 °C
CC(C)(NS(=O)(=O)c1ccc(-c2c(C#N)c3ccc(OC(F)F)cc3n2C2CCC2)nc1)C(F)(F)F [compound 479, 6-[3-cyano-1-cyclobutyl-6-(difluoromethoxy)-1H-indol-2-yl]-N-(1,1,1-trifluoro-2-methylpropan-2-yl)pyridine-3-sulfonamide] | 165 to 171 °C
N#Cc1c(-c2ccc(S(=O)(=O)NC(CF)CF)cn2)n(C2CCC2)c2cc(OC(F)F)ccc12 [compound 31, 6-[3-cyano-1-cyclobutyl-6-(difluoromethoxy)-1H-indol-2-yl]-N-(1,3-difluoropropan-2-yl)pyridine-3-sulfonamide] | 159 to 161 °C
N#Cc1c(-c2ccc(S(=O)(=O)NC3(C(F)(F)F)CC3)cn2)n(C2CCC2)c2cc(C3CC3)ccc12 [compound 153, 6-(3-cyano-1-cyclobutyl-6-cyclopropyl-1H-indol-2-yl)-N-[1-(trifluoromethyl)cyclopropyl]pyridine-3-sulfonamide] | 166 to 171 °C
CC(C)NS(=O)(=O)c1ccc(-c2c(C#N)c3ccc(SC(C)C)cc3n2C2CCC2)nc1 [compound 16, 6-[3-cyano-1-cyclobutyl-6-(propan-2-ylsulfanyl)-1H-indol-2-yl]-N-(propan-2-yl)pyridine-3-sulfonamide] | 129 to 131 °C
C[C@H](NS(=O)(=O)c1ccc(-c2c(C#N)c3ccc(OC(F)F)cc3n2C2CCC2)nc1)C(F)(F)F [compound 300, 6-[3-cyano-1-cyclobutyl-6-(difluoromethoxy)-1H-indol-2-yl]-N-[(2S)-1,1,1-trifluoropropan-2-yl]pyridine-3-sulfonamide] | 159 to 162 °C
CC(C)NS(=O)(=O)c1ccc(-c2c(C#N)c3cc(OC(F)F)ccc3n2C2CCC2)nc1 [compound 19, 6-[3-cyano-1-cyclobutyl-5-(difluoromethoxy)-1H-indol-2-yl]-N-(propan-2-yl)pyridine-3-sulfonamide] | 148 to 153 °C
C[C@H](NS(=O)(=O)c1ccc(-c2c(C(N)=O)c3cc(F)c(C4CC4)cc3n2C2CCCC2)nc1)C(F)(F)F [compound 842, 1-cyclopentyl-6-cyclopropyl-5-fluoro-2-(5-{[(2S)-1,1,1-trifluoropropan-2-yl]sulfamoyl}pyridin-2-yl)-1H-indole-3-carboxamide] | 255 to 257 °C
CC(C)NS(=O)(=O)c1ccc(-c2c(C#N)c3ccc(OC(F)F)cc3n2C2CCC2)nc1 [compound 51, 6-[3-cyano-1-cyclobutyl-6-(difluoromethoxy)-1H-indol-2-yl]-N-(propan-2-yl)pyridine-3-sulfonamide] | 158 to 159 °C
CC(C)NS(=O)(=O)c1ccc(-c2c(C#N)c3cc(OC(F)(F)F)ccc3n2C2CCC2)nc1 [compound 23, 6-[3-cyano-1-cyclobutyl-5-(trifluoromethoxy)-1H-indol-2-yl]-N-(propan-2-yl)pyridine-3-sulfonamide] | 174 to 176 °C
CC(C)NS(=O)(=O)c1ccc(-c2c(C#N)c3ccc(C4CC4)cc3n2C2CCC2)nc1 [compound 7, 6-(3-cyano-1-cyclobutyl-6-cyclopropyl-1H-indol-2-yl)-N-(propan-2-yl)pyridine-3-sulfonamide] | 174 to 176 °C
CC(C)NS(=O)(=O)c1ccc(-c2c(C#N)c3ccc(OCC(F)F)cc3n2C2CCC2)nc1 [compound 59, 6-[3-cyano-1-cyclobutyl-6-(2,2-difluoroethoxy)-1H-indol-2-yl]-N-(propan-2-yl)pyridine-3-sulfonamide] | 171 to 173 °C
